Measured values as given in US10273266B2, “Multi-functional peptide benefiting expression, purification, stabilization and catalytic efficiency of recombinant proteins” (priority 2017, dated 2019).

What was measured:
Format in all cases: biochemical
[1] = target: Pseudomonas aeruginosa BBE lipoxygenase LOX-S1v1 (fused to self-assembling amphipathic peptide S1v1, […], SEQ ID NO.1), LOX gene SEQ ID NO.6 (Pseudomonas aeruginosa, UniProt Q9I4G8); experiment: Lipoxygenase kinetics with linoleic acid, LOX-S1v1
Chain of Pseudomonas aeruginosa BBE lipoxygenase LOX-S1v1 (fused to self-assembling amphipathic peptide S1v1, […], SEQ ID NO.1), LOX gene SEQ ID NO.6 (Q9I4G8 20-685, added parts left off): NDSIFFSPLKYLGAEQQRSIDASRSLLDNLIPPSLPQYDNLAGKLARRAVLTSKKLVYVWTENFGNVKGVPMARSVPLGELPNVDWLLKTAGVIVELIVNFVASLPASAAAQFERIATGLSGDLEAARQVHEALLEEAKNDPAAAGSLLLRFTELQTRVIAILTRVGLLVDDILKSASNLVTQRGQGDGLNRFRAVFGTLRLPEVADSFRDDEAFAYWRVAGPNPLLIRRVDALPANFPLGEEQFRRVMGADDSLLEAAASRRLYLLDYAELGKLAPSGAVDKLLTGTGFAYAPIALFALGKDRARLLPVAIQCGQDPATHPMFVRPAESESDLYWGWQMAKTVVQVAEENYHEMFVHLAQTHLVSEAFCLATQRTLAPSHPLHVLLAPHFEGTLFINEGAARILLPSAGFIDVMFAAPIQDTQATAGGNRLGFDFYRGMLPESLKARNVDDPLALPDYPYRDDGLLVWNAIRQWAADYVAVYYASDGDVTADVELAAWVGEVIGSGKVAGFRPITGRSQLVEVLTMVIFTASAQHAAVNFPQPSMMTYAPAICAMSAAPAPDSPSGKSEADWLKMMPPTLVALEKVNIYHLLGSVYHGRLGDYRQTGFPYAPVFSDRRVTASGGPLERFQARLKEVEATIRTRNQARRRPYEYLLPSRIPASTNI
Excerpt: (§1) FIG. 1. (A) Genetic constructs of the His-tag fusion proteins; (B) Genetic constructs of the S1v1 fusion proteins. S1v1, AEAEAHAHAEAEAHAH; linker, PTPPTTPTPPTTPTPT; His-tag, HHHHHH; Enzymes represented the encoding gene of three proteins (pgl, lox and gfp, respectively) used in this study.
(§2) The nucleotide sequence of PGL gene from Bacillus subtilis WSHB04-02 is shown as SEQ ID NO.4. The nucleotide sequence of LOX gene from Pseudomonas aeruginosa BBE is shown as SEQ ID NO.6. The nucleotide sequence of GFP gene from Aequorea victoria is shown as SEQ ID NO.8. E. coli JM109 was used as the host strain for cloning. E. coli BL21 (DE3) and E. coli Rosetta (DE3) were used as the expression hosts. The pET-22b (+) plasmid was used for expressing the recombinant proteins.
(§3) Linoleic acid was dispersed in 0.15 M K2HPO4—KH2PO4 buffer (pH 7.5). The substrate solution was freshly prepared daily and saturated with oxygen for 5 min before testing. Standard analytical mixture (3 mL) contains 0.3 mM linoleic acid and about 1.67 μg/mL enzyme. One unit of activity was defined as enzyme required to synthesis 1 μmol hydroperoxide per min at 25° C. Hydroperoxidaton was determined at 234 nm in a spectrophotometer (UV-2450; Shimadzu Co., Kyoto, Japan). The initial linear part of the wave was used to calculate enzyme activity.
(2) The LOX gene (shown in SEQ ID NO. 6) was cloned into the recombinant vector pET-22b(+)/S1v1 at the restriction NcoI and XhoI sites to construct a recombinant plasmid pET-22b(+)/lox-S1v1.

[2] = target: Pseudomonas aeruginosa BBE lipoxygenase (LOX, EC 1.13.11.12), wild-type, gene SEQ ID NO.6 (Pseudomonas aeruginosa, UniProt Q9I4G8); experiment: Lipoxygenase kinetics with linoleic acid, wild-type LOX; conditions: pH 7.5, 25° C., Value ± SD
Chain of Pseudomonas aeruginosa BBE lipoxygenase (LOX, EC 1.13.11.12), wild-type, gene SEQ ID NO.6 (Q9I4G8 19-685, looked up, natural form): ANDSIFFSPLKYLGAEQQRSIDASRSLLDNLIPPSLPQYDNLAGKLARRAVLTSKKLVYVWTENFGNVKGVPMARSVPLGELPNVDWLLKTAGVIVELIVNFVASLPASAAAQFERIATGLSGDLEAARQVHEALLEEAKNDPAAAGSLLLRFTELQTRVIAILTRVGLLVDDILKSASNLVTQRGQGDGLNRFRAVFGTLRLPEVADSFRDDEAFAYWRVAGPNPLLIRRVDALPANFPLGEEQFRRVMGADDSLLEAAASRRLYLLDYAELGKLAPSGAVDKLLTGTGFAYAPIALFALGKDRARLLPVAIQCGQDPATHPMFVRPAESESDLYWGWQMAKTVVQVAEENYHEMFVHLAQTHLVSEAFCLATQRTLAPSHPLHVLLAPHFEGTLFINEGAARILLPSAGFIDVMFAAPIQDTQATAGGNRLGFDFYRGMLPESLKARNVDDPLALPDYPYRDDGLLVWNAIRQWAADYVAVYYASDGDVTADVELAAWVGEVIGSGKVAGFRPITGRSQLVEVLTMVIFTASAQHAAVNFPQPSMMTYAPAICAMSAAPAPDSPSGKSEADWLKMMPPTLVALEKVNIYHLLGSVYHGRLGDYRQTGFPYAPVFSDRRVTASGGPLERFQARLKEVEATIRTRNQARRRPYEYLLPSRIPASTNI
Excerpt: as §2, §3

[3] = target: Pseudomonas aeruginosa BBE lipoxygenase LOX-His (His-tag HHHHHH fusion), gene SEQ ID NO.6 (Pseudomonas aeruginosa, UniProt Q9I4G8); experiment: Lipoxygenase kinetics with linoleic acid, LOX-His; conditions: pH 7.5, 25° C., Value ± SD
Chain of Pseudomonas aeruginosa BBE lipoxygenase LOX-His (His-tag HHHHHH fusion), gene SEQ ID NO.6 (Q9I4G8 19-685, looked up, natural form): as above
Excerpt: as §1, §2, §3

[4] = increase of LOX-S1v1 than that of the wild-type LOX
[5] = linoleic acid, LOX-S1v1, pH 7.5, 25° C., Value ± SD

CCCCC/C=C\C/C=C\CCCCCCCC(=O)O [linoleic acid, Linoleic acid]
Km value (in words) ([1]; fusion enzymes compared with wild-types, decrease in substrate affinity after S1v1 peptide fusion): higher Km value | catalytic efficiencies (kcat/Km) increase [1, 4]: 1.3 fold | kcat value increase [1, 4]: 2.4 fold | Km [1, 5]: 83 ± 2 µM | kcat [1, 5]: 83.2 ± 3.25 S^−1 | Km [2]: 57 ± 1.2 µM | kcat [2]: 24.77 ± 0.97 S^−1 | Km [3]: 55 ± 2 µM | kcat [3]: 25.21 ± 1.02 S^−1
